# Source: ChEMBL document CHEMBL1146913, “Symmetrical and unsymmetrical analogues of isoxyl; active agents against Mycobacterium tuberculosis” (2006)
# The source made the active and inactive calls. The rule behind the calls is not given here.
# How the values were obtained:
# [1] = test system: Mycobacterium tuberculosis; assay: Inhibition of oleate production in Mycobacterium bovis BCG; format: functional; conditions: for inhibition: variant bovis BCG
# [2] = test system: Mycobacterium tuberculosis; assay: Antibacterial activity against Mycobacterium bovis BCG; format: functional; conditions: variant bovis BCG
SMILES,inhibition [1],MIC99 [2],Inhibition [1]
CCCCOc1ccc(NC(=S)Nc2ccc(CCCC)cc2)cc1,inactive,0.7 µg/mL,–
CCCOc1ccc(NC(=S)Nc2ccc(OCCC)cc2)cc1,–,0.5 µg/mL,90.76%
CC(C)CCOc1ccc(NC(=S)Nc2ccc(OCCC(C)C)cc2)cc1 [TIOCARLIDE],–,1.1 µg/mL,61.02%
CC(C)CCOc1ccc(NC(=S)Nc2ccc(OCC(C)C)cc2)cc1,–,0.9 µg/mL,19.24%
CCCCOc1ccc(NC(=S)Nc2ccc(OCC(C)C)cc2)cc1,–,0.6 µg/mL,63.99%
CCCSc1ccc(NC(=S)Nc2ccc(Cc3ccccc3)cc2)cc1,inactive,1.75 µg/mL,–
CCCCOc1ccc(NC(=S)Nc2ccc(OCCC(C)C)cc2)cc1,–,0.4 µg/mL,79.96%
CC(C)COc1ccc(NC(=S)Nc2ccc(OCC(C)C)cc2)cc1,–,0.9 µg/mL,51.62%
CCCCOc1ccc(NC(=S)Nc2ccc(OCCCC)cc2)cc1,–,0.5 µg/mL,94.25%
CCCCc1ccc(NC(=S)Nc2ccc(OCCC)cc2)cc1,inactive,0.06 µg/mL,–
CCCCc1ccc(NC(=S)Nc2ccc(OCCC(C)C)cc2)cc1,–,0.6 µg/mL,14.82%
CCCCc1ccc(NC(=S)Nc2ccc(CCCC)cc2)cc1,inactive,0.075 µg/mL,–
CC(C)CCOc1ccc(NC(=S)Nc2ccc(Cc3ccccc3)cc2)cc1,–,1.1 µg/mL,48.83%
CCCCOc1ccc(NC(=S)Nc2ccc(Cc3ccccc3)cc2)cc1,–,1.5 µg/mL,66.15%
CCCCOc1ccc(NC(=S)Nc2ccc(SCC(C)C)cc2)cc1,–,0.7 µg/mL,17.75%
CCCCOc1ccc(NC(=S)Nc2ccc(SCCC)cc2)cc1,inactive,0.06 µg/mL,–
CCCSc1ccc(NC(=S)Nc2ccc(OCCC(C)C)cc2)cc1,–,0.5 µg/mL,53.32%
CC(C)CSc1ccc(NC(=S)Nc2ccc(SCC(C)C)cc2)cc1,inactive,0.6 µg/mL,–
